Read-outs that look alike come from different tables or passages of the source.
What was measured:
Type in all cases: in vivo
[1] = tested on: tobacco Mosaic virus (TMV); assay: Anti-TMV activity: live protection function; conditions: for inhibition at 500 µg/mL: Tobacco mosaic virus, read-out: Relative inhibition rate (%) Live protection function; for antiTMV activity / TMV activity: 500µg/mL, Table 4 (all three modes); for antiTMV activity: compared with commercial Ningnanmycin; for TMV activity: compared with ribavirin
Protocol: (§1) Determination of anti-tobacco Mosaic virus (TMV) activity by the following procedure:
(§2) The virus crude extract was centrifuged with polyethylene glycol at twice and refrigerated at 4°C for use. The absorbance of 260nm wavelength was determined by ultraviolet spectrophotometer, and the virus concentration was calculated according to the formula. Virus concentration(mg/ml) = (A260 × dilution ratio)(/E)^0.10 1cm^260nm . [formula]
(§3) After weighing, cryptolepine salt derivative, ningnanmycin and the original drug of ribavirin were dissolved in DMF to obtain 1×10^5µg/mL mother solution, and then diluted to the required concentration with 1‰ Tween 80 aqueous solution.
Select the 3-5 leaf stage of tobacco Xanthi nc with uniform growth, spray the whole plant, repeat each treatment 3 times, and set 1‰ Tween80 aqueous solution as control. 24h later, the leaf surface was coated with emery (500 mesh), the disease venom was dipped with a brush, and the whole leaf surface was gently rubbed twice along the direction of the branch pulse by using the brush, the leaf was supported by palm of hand, the virus concentration was 10µg/mL, and the leaf was washed by water after inoculation. After 3 days, the number of disease spots was recorded and the prevnetion and control effect was calculated.

[2] = tested on: tobacco Mosaic virus (TMV); assay: Anti-TMV activity: live treatment effect; conditions: for inhibition at 500 µg/mL: Tobacco mosaic virus, 72 h, read-out: Relative inhibition rate (%) Live treatment effect
Protocol: as §1, §2, §3
Select the 3-5 leaf stage of tobacco Xanthi nc with uniform growth, use a brush to vaccinate the virus in the whole leaf, the virus concentration is 10µg/mL, and the leaf was washed with running water after inoculation. After the leaves were dried, the whole plant was sprayed with test sample, repeated 3 times every treatment, and 1‰ Tween 80 aqueous solution was set as control. After 3 days, the number of disease spots was recorded and the prevnetion and control effect was calculated.

[3] = tested on: tobacco Mosaic virus (TMV); assay: Anti-TMV activity: living passivation activity test; conditions: for inhibition at 500 µg/mL: Tobacco mosaic virus, read-out: Relative inhibition rate (%) Living passivation activity test
Protocol: as §1, §2, §3
Select the 3-5 leaf stage of tobacco Xanthi nc with uniform growth, mix the test sample agent with the same volume of virus juice to passivate for 30min, friction inoculation, virus concentration 20µg/mL, the leaf was washed with running water after inoculation, repeat 3 times, set 1‰ Tween 80 aqueous solution as control. 3 days later, the number of disease spots was calculated. [formula]
Anti-tobacco Mosaic virus passivation activity test of all compounds was at a treatment dose of 500µg/mL. The positive control was the commercial anti-plant virus agent viriazole.

[4] = tested on: rice sheath blight strains; assay: Bactericidal activity test: resistance to rice sheath blight (live pot test); conditions: for pest or weed control at 400 µg/mL: Oryza sativa, 144 h
Protocol: Bactericidal activity test, the determination procedure is as follows: Test of resistance to rice sheath blight: Select uniformly growing rice seedlings and spray them on the leaves at the set concentration, set a water sprayring group as blank control, every treatment was repeated twice. After 24h, the rice seedlings were inoculated with rice sheath blight strains and placed at room temperature (25±4°C) for normal management after inoculation. The prevention and control effect was investigated by visual inspection 6 days after inoculation.

[5] = read-out: Resistance to rice sheath blight (%)/400mg/L
[6] = read-out: bactericidal activity against rice sheath blight
[7] = Treatment dose 500 mg/L, tobacco Xanthi nc sprayed 24h before inoculation, virus 10µg/mL, disease spots counted after 3 days
[8] = Treatment dose 500 mg/L, tobacco Xanthi nc inoculated (virus 10µg/mL), then sprayed, disease spots counted after 3 days
[9] = Treatment dose 500 mg/L, sample mixed with virus juice for 30min, then inoculated on tobacco Xanthi nc, virus 20µg/mL, 3 days

Row | SMILES | inhibition at 500 µg/mL [1] [%] | inhibition at 500 µg/mL [2] [%] | inhibition at 500 µg/mL [3] [%] | pest or weed control at 400 µg/mL [4, 5] [%] | also measured
1 | Cc1ccc(S(=O)(=O)n2c3ccccc3c3c2cc2ccccc2[n+]3C)cc1 [Example 1] | 18.9 ± 2.6 | 20.3 ± 1.1 | 18.5 ± 0.6 | 95 ± 5 | pest or weed control at 400 µg/mL [4, 6]: > 95%
2 | Cc1ccc(S(=O)(=O)n2c3ccc(C)cc3c3c2cc2ccccc2[n+]3C)cc1 [Example 2] | 26.5 ± 3 | 20.5 ± 0.9 | 25.3 ± 2.3 | 40 | 
3 | COc1ccc2c(c1)c1c(cc3ccccc3[n+]1C)n2S(=O)(=O)c1ccc(C)cc1 [Example 3] | 18.1 ± 3.1 | 19.1 ± 0.1 | 20.3 ± 0.2 | 35 ± 5 | 
4 | Cc1ccc(S(=O)(=O)n2c3ccc(F)cc3c3c2cc2ccccc2[n+]3C)cc1 [Example 4] | 21.6 ± 3.4 | 18.6 ± 1.2 | 14.1 ± 1.3 | 60 | pest or weed control at 400 µg/mL [4, 6]: > 50%
5 | Cc1ccc(S(=O)(=O)n2c3ccc(Cl)cc3c3c2cc2ccccc2[n+]3C)cc1 [Example 5] | 46.7 ± 4.1 | 35.8 ± 4.8 | 39.3 ± 2.5 | 55 ± 5 | antiTMV activity [1]: comparable to that of commercial Ningnanmycin; TMV activity [1]: better TMV activity than the ribavirin; pest or weed control at 400 µg/mL [4, 6]: > 50%
6 | Cc1ccc(S(=O)(=O)n2c3ccc(Br)cc3c3c2cc2ccccc2[n+]3C)cc1 [Example 6] | 48.4 ± 4.7 | 45.2 ± 3.6 | 41 ± 2.2 | 40 | antiTMV activity [1]: comparable to that of commercial Ningnanmycin; TMV activity [1]: better TMV activity than the ribavirin
7 | Cc1ccc(S(=O)(=O)n2c3ccc(I)cc3c3c2cc2ccccc2[n+]3C)cc1.[Cl-] [Example 7] |  |  |  |  | TMV activity [1]: better TMV activity than the ribavirin; Relative inhibition rate (%) Live protection function [1, 7]: 44.5±0.4%; Relative inhibition rate (%) Live treatment effect [2, 8]: 43.0±3.5%; Relative inhibition rate (%) Living passivation activity test [3, 9]: 47.7±3.1%; Resistance to rice sheath blight (%)/400mg/L ([4]; 400mg/L leaf spray on rice seedlings, inoculated after 24h, visual inspection 6 days after inoculation): 40±0%
8 | Cc1ccc(S(=O)(=O)n2c3ccc(C#N)cc3c3c2cc2ccccc2[n+]3C)cc1 [Example 8] | 18.8 ± 4.2 | 23.1 ± 0.5 | 18.6 ± 1.2 | 30 | 
9 | Cc1ccc(S(=O)(=O)n2c3ccccc3c3c2cc2cc(C)ccc2[n+]3C)cc1 [Example 9] | 23.8 ± 3.5 | 19.1 ± 0.1 | 23.1 ± 0.9 | 70 | pest or weed control at 400 µg/mL [4, 6]: > 50%
10 | COc1ccc2c(c1)cc1c(c3ccccc3n1S(=O)(=O)c1ccc(C)cc1)[n+]2C [Example 10] | 17 ± 1 | 10.2 ± 0.7 | 19.1 ± 0.2 | 30 | 
11 | Cc1ccc(S(=O)(=O)n2c3ccccc3c3c2cc2cc(F)ccc2[n+]3C)cc1 [Example 11] | 27.6 ± 1.4 | 30.1 ± 1.1 | 22.3 ± 1 | 40 | 
12 | Cc1ccc(S(=O)(=O)n2c3ccccc3c3c2cc2cc(Cl)ccc2[n+]3C)cc1 [Example 12] | 23.4 ± 3.3 | 19.1 ± 1 | 20.3 ± 2.1 | 40 | 
13 | CNCC(=O)N[C@@H](CO)C(=O)N[C@H]1[C@H](O)[C@@H](O)[C@H](n2ccc(N)nc2=O)O[C@@H]1C(N)=O [Ningnanmycin, reference compound] | 58.3 ± 4.1 | 56.9 ± 2.8 | 59 ± 2.2 |  | 
14 | Cc1nc(C(F)(F)F)c(C(=O)Nc2c(Br)cc(OC(F)(F)F)cc2Br)s1 [Thifluzamide, reference compound] |  |  |  |  | pest or weed control at 400 µg/mL ([4]; 400mg/L leaf spray on rice seedlings, inoculated after 24h, visual inspection 6 days after inoculation, read-out: Resistance to rice sheath blight (%)/400mg/L): 100%
15 | NC(=O)c1ncn([C@@H]2O[C@H](CO)[C@@H](O)[C@H]2O)n1 [ribavirin, reference compound] |  |  |  |  | inhibition at 500 µg/mL [1, 7]: 39.5 ± 2%; inhibition at 500 µg/mL [2, 8]: 36.1 ± 3.7%; inhibition at 500 µg/mL [3, 9]: 38 ± 1.3%

Source: EP4578857A1, “CRYPTOLEPINE SALT DERIVATIVE, AND PREPARATION METHOD THEREFOR AND USE THEREOF” (Nankai University, priority 2023, dated 2025)
